Results from patent US10905665B2, “Chemical modulators of signaling pathways and therapeutic use” (Duke University, priority 2015, dated 2021).
Like-named read-outs stand apart in the source and are kept apart here.

Assays:
Frizzled1-GFP = target: T1, Frizzled1-GFP (Homo sapiens, UniProt Q9UP38); assay: Frizzled internalization assay (Fzd1-GFP); format: cell-based; set-up: key: Punctate similar to control=0; trace amount of punctate greater than control=1; moderate=3; strong=5; conditions: 6 hours, 0-5 point scale
T1 construct: expressed in transfected cells
Protocol: The Fzd1-GFP assay was performed following a procedure similar to previously published work (Chen, M. Y.; Wang, J. B.; Lu, J. Y.; Bond, M. C.; Ren, X. R.; Lyerly, H. K.; Barak, L. S.; Chen, W. Biochemistry 2009, 48, 10267). Cells stably expressing Frizzled1-GFP plated in confocal dishes were treated, after 24 hours, with 12.5 μM of test compound or DMSO for 6 hours at 37° C. followed by fixation with 4% paraformaldehyde. The cells were then examined by microscopy using a LSM 510-Meta confocal microscope (Carl Zeiss, Thornwood, N.Y., USA) equipped with 40× and 100× apo chromat objectives. YFP was excited using a 488-nm argon laser line. Images were processed using the LSM software Image Browser (CarlZeiss, Thornwood, N.Y., USA). Plates were read twice in blinded fashion using a 0-5 point scale. ^aPunctate similar to control=0, trace amount of punctate greater than control=1, moderate=3, strong=5.

[1] = test system: Wnt/β-catenin transcription; assay: Wnt-3A-stimulated TOPFlash reporter assay in HEK293 cells; format: cell-based; conditions: Homo sapiens, Wnt-3A conditioned medium, 8 hour treatment, read-out: Inhibition Wnt/β-catenin transcription TopFlash IC50
Protocol: Stably transfected cells were seeded in 100 μl of cell growth medium/well in 96-well plates at 100% confluency. Fifty microliters of Wnt-3A conditioned medium containing the chemical compounds to be tested or DMSO was added to each well. After an 8 hour treatment, the cells were washed once with PBS and lysed with 55 μl of Passive Lysis Buffer supplied in the Dual-Luciferase Reporter Assay kit (Promega, Madison, Wis.). Twenty-five microliters of cell lysate was used for measuring luciferase activity in a 96-well plate reader (FluoStar Optima, BMG Labtech, Chicago, Ill.). Data were fit using GraphPad Prism (mean±SEM, n>=2).

β-catenin = assay: Western blot of cytosolic β-catenin in HCT-116 cells; format: cell-based; conditions: Homo sapiens, 2.0 μM compound, read-out: Remaining cytosolic β-catenin
Protocol: Western blots were performed following a procedure similar to previously published work (Osada, T.; Chen, M. Y.; Yang, X. Y.; Spasojevic, I.; Vandeusen, J. B.; Hsu, D.; Clary, B. M.; Clay, T. M.; Chen, W.; Morse, M. A.; Lyerly, H. K. Cancer Research 2011, 71, 4172). HCT-116 cells were grown to about 80% confluency in poly-D-lysine coated six-well plates 48 hours before treatment and followed by 2.0 μM compounds or DMSO incubation for 18 hours in growth medium. After treatment, the cytosolic fraction was isolated as described (Osada, T.; Chen, M. Y.; Yang, X. Y.; Spasojevic, I.; Vandeusen, J. B.; Hsu, D.; Clary, B. M.; Clay, T. M.; Chen, W.; Morse, M. A.; Lyerly, H. K. Cancer Research 2011, 71, 4172). Immunoblots using antibodies to […] (E-5, Santa Cruz Biotechnology catalog number sc-7963) was used to detect β-catenin protein levels in the cytosol, and immunoblots using antibodies to β-actin (C-4, Santa Cruz Biotechnology, catalog number SC-47778) was used for loading controls.
Inhibition of Wnt signaling was determined by analyzing the reduction of cytosolic β-catenin by Western blot (FIG. 1, 2).

[2] = test system: colon cancer cell line HCT116; assay: Cell proliferation assay (MTS); format: cell-based; conditions: for IC50: Homo sapiens, HCT-116, HCT116, 72 hours, 0.04 to 10 μM, read-out: Anti-proliferation IC50 (μM), MTS assay
Protocol: The colon cancer cell line HCT116 was used in the cell proliferation assay. The cells were plated in 100 μl of growing medium/well in 96-well plates at 5,000 cells per well and treated with compounds from 0.04 to 10 μM for 72 hours, after which point the cells were analyzed by colorimetric MTS assay (Promega, Madison, Wis., USA). Data were fit using GraphPad Prism (mean±SEM, n 3).

[3] = niclosamide dosed orally as a solution at 200 mg/kg, reported (Osada 2011); cited from earlier work
[4] = Pharmacokinetic studies, niclosamide in mouse plasma; format: in vivo, CD1 mice; conditions: mice
Protocol: For niclosamide dosed IV, niclosamide was dissolved in a solvent of 67% polyethylene glycol 400 and 33% N,N-dimethylacetamide at a concentration of 3.27 mg/mL and tail vein injected at a dose of 2.6 mg/kg of body weight. Blood samples were obtained at predose and at 0.08, 0.17, 0.33, 0.67, 1.5, 4, 8, 12 hours after drug administration. For oral dosing of compound 74, compound 74 was dissolved in a solvent of 90% polyethylene glycol 300 and 10% 1-methyl-2-pyrrolidinone at a concentration of 20 mg/mL and gavaged at a dose of 200 mg/kg of body weight. Blood samples were obtained at predose and at 0.25, 0.5, 1, 2, 4, 8 hours after drug administration. For oral dosing of compound 61, compound 61 was dissolved in corn oil at a concentration of 20 mg/mL and dosed at 200 mg/kg of body weight. Blood samples were obtained at predose and at 0.25, 0.5, 0.75, 1, 1.5, 4, 8, 12, 24, 48, and 72 hours after drug administration. All the solvent reagents were purchased from Sigma-Aldrich (St. Louis, Mo., USA). CD1 mice were used in the pharmacokinetic studies. Quantification of niclosamide in mouse plasma was done by LC/MS-MS using methods similar to those previously published (Osada, T.; Chen, M. Y.; Yang, X. Y.; Spasojevic, I.; Vandeusen, J. B.; Hsu, D.; Clary, B. M.; Clay, T. M.; Chen, W.; Morse, M. A.; Lyerly, H. K. Cancer Research 2011, 71, 4172.).

[5] = test system: High Fat Diet (HFD)-Induced Hepatic Steatosis; assay: Reduction of high fat diet (HFD)-induced hepatic steatosis; format: in vivo, C57BL/6J mice; conditions: 200 mg/kg oral gavage, three months
Protocol: Five week old male C57BL/6J mice were fed with chow or high fat diet for two months, followed by same diet and oral gavage of vehicle (corn oil) or compound 61 at 200 mg/kg for three months (daily for 6 days a week from Monday to Saturday). Liver tissue samples were collected after the three month treatment. Pictures shown in FIG. 9 are representative liver sections stained with H&E. A. Chow mice with vehicle; B. Chow mice with compound 61; C. HFD mice with vehicle; D. HFD mice with compound 61. […] The white fat deposits look similar in both panel A and B. However, when mice were fed a high fat diet (panel C), a large amount of white fatty deposits can be seen along with a large amount of dysplastic liver tissue.

T1 sequence (Q9UP38 70-647): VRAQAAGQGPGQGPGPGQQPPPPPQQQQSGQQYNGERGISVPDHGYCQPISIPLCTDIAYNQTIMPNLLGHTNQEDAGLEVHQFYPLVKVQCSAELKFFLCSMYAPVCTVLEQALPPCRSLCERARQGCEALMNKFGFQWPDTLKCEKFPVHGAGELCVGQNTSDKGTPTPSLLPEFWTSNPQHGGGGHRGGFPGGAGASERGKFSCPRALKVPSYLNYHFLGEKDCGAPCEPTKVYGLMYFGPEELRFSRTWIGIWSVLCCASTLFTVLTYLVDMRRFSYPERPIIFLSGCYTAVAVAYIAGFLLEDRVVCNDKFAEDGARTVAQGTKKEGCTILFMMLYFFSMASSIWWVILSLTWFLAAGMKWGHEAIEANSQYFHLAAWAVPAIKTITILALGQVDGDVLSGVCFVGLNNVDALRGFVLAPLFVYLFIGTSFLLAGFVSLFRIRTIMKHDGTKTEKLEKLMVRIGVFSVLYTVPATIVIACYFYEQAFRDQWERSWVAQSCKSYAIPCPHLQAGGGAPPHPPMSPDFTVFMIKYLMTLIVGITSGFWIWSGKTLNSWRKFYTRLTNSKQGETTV

Row | SMILES | Fzd1-GFP internalization @12.5 μM (Frizzled1-GFP) | IC50 ([1]; HEK293, 8 h) | IC50 [2] | Effect on the liver (H&E sections), chow diet ([5]; normal chow diet) | Pharmacokinetic properties after oral administration, in words [4] | activity at 2 µM (β-catenin; HCT-116, 18 h) | Time plasma levels of niclosamide were above the TOPFlash IC50 [3] | Plasma exposure of niclosamide compared to 200 mg/kg niclosamide dosed orally, in words ([4]; compound 61 in corn oil, 200 mg/kg oral) | Liver fat deposits and tissue architecture (H&E sections), high fat diet ([5]; high fat diet) | Anti-proliferation activity, MTS assay, in words ([2]; HCT116, up to 10 μM) | IC50 ([1]; HEK293) | activity at 2 µM (β-catenin; 18 hours)
1 | O=C(Nc1ccc([N+](=O)[O-])cc1Cl)c1cc(Cl)ccc1O [A, 5-chloro-N-(2-chloro-4-nitrophenyl)-2-hydroxybenzamide, reference compound] | 5 | 340 ± 80 nM | 0.45 ± 0.05 µM |  |  | 8% | less than 1 hour |  |  |  |  | 
2 | CN(C(=O)c1cc(Cl)ccc1O)c1ccc(C(F)(F)F)cc1 [Compound 24, 5-chloro-2-hydroxy-N-methyl-N-(4-(trifluoromethyl)phenyl)benzamide] | 0 | > 12000 nM | > 10 µM |  |  | 96% |  |  |  |  |  | 
3 | O=C(Nc1c(Cl)cccc1Cl)c1cc(Cl)ccc1O [Compound 18, 5-chloro-N-(2,6-dichlorophenyl)-2-hydroxybenzamide] | 0 | > 12000 nM | > 10 µM |  |  | 100% |  |  |  | no effect |  | 
4 | O=C(Nc1ccc(Cl)cc1Cl)c1cc(Cl)ccc1O [Compound 14, 5-chloro-N-(2,4-dichlorophenyl)-2-hydroxybenzamide] | 5 | 420 ± 100 nM | 1.18 ± 0.14 µM |  |  | 7% |  |  |  |  |  | 
5 | O=C(Nc1ccc(C(F)(F)F)cc1Cl)c1cc(Cl)ccc1O [Compound 7, 5-chloro-N-(2-chloro-4-(trifluoromethyl)phenyl)-2-hydroxybenzamide] | 5 | 560 ± 210 nM | 0.54 ± 0.08 µM |  | poor pharmacokinetic properties | 6% |  |  |  |  |  | 
6 | CCOC(=O)Oc1ccc(Cl)cc1C(=O)Nc1ccc(C(F)(F)F)cc1Cl [Compound 70, 4-Chloro-2-((2-chloro-4-(trifluoromethyl)phenyl)carbamoyl)phenyl ethyl carbonate] | 5 |  | 0.51 ± 0.06 µM |  |  |  |  |  |  |  | 340 ± 120 nM | 8%

Second part, led by results:

Row | Fzd1-GFP internalization @12.5 μM (Frizzled1-GFP) | IC50 ([1]; HEK293, 8 h) | IC50 [2] | Effect on the liver (H&E sections), chow diet ([5]; normal chow diet) | Pharmacokinetic properties after oral administration, in words [4] | SMILES | activity at 2 µM (β-catenin; HCT-116, 18 h) | Time plasma levels of niclosamide were above the TOPFlash IC50 [3] | Plasma exposure of niclosamide compared to 200 mg/kg niclosamide dosed orally, in words ([4]; compound 61 in corn oil, 200 mg/kg oral) | Liver fat deposits and tissue architecture (H&E sections), high fat diet ([5]; high fat diet) | Anti-proliferation activity, MTS assay, in words ([2]; HCT116, up to 10 μM) | IC50 ([1]; HEK293) | activity at 2 µM (β-catenin; 18 hours)
7 | 5 | 330 ± 100 nM | 0.55 ± 0.07 µM |  |  | O=c1oc2ccc(Cl)cc2c(=O)n1-c1ccc(C(F)(F)F)cc1Cl [Compound 73, 6-Chloro-3-(2-chloro-4-(trifluoromethyl)phenyl)-2H-benzo[e][1,3]oxazine-2,4(3H)-dione] | 9% |  |  |  |  |  | 
8 | 5 | 230 ± 60 nM | 0.61 ± 0.11 µM | minimal to no effect |  | CCCCCCCC(=O)Oc1ccc(Cl)cc1C(=O)Nc1ccc([N+](=O)[O-])cc1Cl [Compound 61, 4-Chloro-2-((2-chloro-4-nitrophenyl)carbamoyl)phenyl octanoate] | 8% |  | significantly increased plasma exposure of niclosamide | limited white fatty deposits without the dysplastic tissue architecture |  |  | 
9 | 5 | 290 ± 60 nM | 0.67 ± 0.09 µM |  |  | O=C(Nc1ccc(C(F)(F)F)cc1)c1cc(Cl)ccc1O [Compound 8, 5-chloro-2-hydroxy-N-(4-(trifluoromethyl)phenyl)benzamide] | 7% |  |  |  |  |  | 
10 |  | 320 ± 30 nM |  |  | poor pharmacokinetic properties | O=c1oc2ccc(Cl)cc2c(=O)n1-c1ccc(C(F)(F)F)cc1 [Compound 74, 6-chloro-3-(4-(trifluoromethyl)phenyl)-2H-benzo[e][1,3]oxazine-2,4(3H)-dione] |  |  |  |  |  |  | 
